Assay results from publication PMC6199744, “Development of Chemical Proteomics for the Folateome and Analysis of the Kinetoplastid Folateome” (ACS Infectious Diseases, 2018).

Legend:
[1] = tested on: BRANCHED-CHAIN AMINO ACID AMINOTRANSFERASE, PUTATI (TB427.02.4590); assay: Multitargeted bead mixture competition; type: binding; settings: free ligand 100 μM, T. brucei lysate
PTR-1 = PTR-1 (Trypanosoma brucei brucei, UniProt O76290); assay: Individual bead pull down with competing free ligand; settings: competing free ligand 100 μM; bead = immobilized compound of the row; T. brucei lysate; read-out: % Inhibition of protein binding to bead, PTR-1, T. brucei
Excerpt: (§1) Antifolate compounds were immobilized onto NHS-activated sepharose beads/reverse sepharose beads through amide coupling via either an amino or carboxyl group (see Figure 3). The reaction was monitored by observing the disappearance of test compound by LCMS, after which the unreacted coupling sites were capped with NHS-acetate or aminoethanol.
(§2) Folate metabolizing enzymes are not highly abundant proteins,[19],[20] potentially making their identification by MS difficult. Beads will not only pull down the low abundant high affinity binders but also attract highly abundant, low affinity binders or so-called nonspecific binders. Sometimes, the nonspecific high abundant proteins can mask true binders. The target identification approach used in this study overcomes this issue by performing competition studies. Various concentrations of the free unmodified inhibitor (test compound) were preincubated with the lysate, prior to addition of the beads derivatized with immobilized compounds. Following washing of the bound proteins from the beads and tryptic digest, the peptides were labeled using the TMTs and then pooled. Differences in peptide abundance were analyzed by fragmentation of the isotope-coded isobaric tags in the MS/MS spectra (Figure 5).[9],[11],[12],[21] While the competition experiments with test compound confirm specific binding, it is also possible that some proteins will have a stronger binding interaction with the derivatized beads than the competing test compound, due to subtle differences in the interactions between the immobilized compound and the test compound with the target protein.

DHFR-TS = DHFR-TS (Trypanosoma brucei brucei, UniProt Q27783); assay: as above; settings: competing free ligand 100 μM; bead = immobilized compound of the row; T. brucei lysate; read-out: % Inhibition of protein binding to bead, DHFR-TS, T. brucei
Excerpt: as §1, §2

Chain of PTR-1 (O76290 entry or part of it): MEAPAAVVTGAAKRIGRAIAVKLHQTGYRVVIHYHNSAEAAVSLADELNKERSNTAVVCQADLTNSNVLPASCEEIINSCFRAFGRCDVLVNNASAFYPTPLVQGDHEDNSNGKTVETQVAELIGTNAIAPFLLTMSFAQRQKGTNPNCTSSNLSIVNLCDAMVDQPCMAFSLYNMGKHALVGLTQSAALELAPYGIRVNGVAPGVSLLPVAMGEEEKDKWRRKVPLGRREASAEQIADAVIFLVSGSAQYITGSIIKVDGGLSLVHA
Chain of DHFR-TS (Q27783 whole entry): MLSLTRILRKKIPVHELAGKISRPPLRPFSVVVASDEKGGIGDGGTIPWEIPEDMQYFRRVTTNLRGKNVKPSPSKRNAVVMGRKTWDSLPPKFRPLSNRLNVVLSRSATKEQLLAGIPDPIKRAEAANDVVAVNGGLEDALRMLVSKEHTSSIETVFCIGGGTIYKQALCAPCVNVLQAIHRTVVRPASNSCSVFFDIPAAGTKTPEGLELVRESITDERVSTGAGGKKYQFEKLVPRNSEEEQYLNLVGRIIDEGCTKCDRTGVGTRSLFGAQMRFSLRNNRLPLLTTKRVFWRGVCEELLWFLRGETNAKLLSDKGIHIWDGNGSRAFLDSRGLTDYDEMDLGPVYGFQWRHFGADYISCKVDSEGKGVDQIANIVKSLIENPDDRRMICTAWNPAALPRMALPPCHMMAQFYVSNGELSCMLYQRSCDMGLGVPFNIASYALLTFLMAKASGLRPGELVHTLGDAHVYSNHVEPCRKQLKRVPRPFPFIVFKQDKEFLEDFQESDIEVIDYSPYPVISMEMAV

Nc1nc2cccc(-c3ccccc3)c2n1Cc1ccc(Cl)c(Cl)c1 [compound 3]
percentage of competition from bead binding [1]: 51%
inhibition at 100 µM (PTR-1): < 50%
inhibition at 100 µM (DHFR-TS): < 50%
